Assay results as given in PubChem BioAssay (NCI).
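Method: 48-hour compound exposure of cells in 96-well plates, five concentrations, linear interpolation of endpoints. GI50 = concentration required for 50% inhibition of growth. The concentration for full growth arrest is given as TGI.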

Assays:
Assay in all cases: NCI anticancer screen, dose series, 48 h
OVCAR-8 ovarian = tested on: OVCAR-8 ovarian
UACC-62 melanoma = tested on: UACC-62 melanoma
PC-3 prostate = tested on: PC-3 prostate
SNB-19 CNS = tested on: SNB-19 CNS
KM12 colon = tested on: KM12 colon
MOLT-4 leukemia = tested on: MOLT-4 leukemia
SK-OV-3 ovarian = tested on: SK-OV-3 ovarian
OVCAR-5 ovarian = tested on: OVCAR-5 ovarian
HOP-92 NSCLC = tested on: HOP-92 NSCLC
BT-549 breast = tested on: BT-549 breast
U251 CNS = tested on: U251 CNS
M14 melanoma = tested on: M14 melanoma
UACC-257 melanoma = tested on: UACC-257 melanoma
TK-10 renal = tested on: TK-10 renal
SF-539 CNS = tested on: SF-539 CNS
HCT-15 colon = tested on: HCT-15 colon
MALME-3M melanoma = tested on: MALME-3M melanoma
MCF7 breast = tested on: MCF7 breast
HT29 colon = tested on: HT29 colon
SNB-75 CNS = tested on: SNB-75 CNS
CAKI-1 renal = tested on: CAKI-1 renal
HS 578T breast = tested on: HS 578T breast
EKVX NSCLC = tested on: EKVX NSCLC
MDA-MB-435 = tested on: MDA-MB-435
RPMI-8226 leukemia = tested on: RPMI-8226 leukemia
MDA-MB-231 breast = tested on: MDA-MB-231 breast
CCRF-CEM leukemia = tested on: CCRF-CEM leukemia
NCI/ADR-RES ovarian = tested on: NCI/ADR-RES ovarian
HCC-2998 colon = tested on: HCC-2998 colon
HL-60(TB) leukemia = tested on: HL-60(TB) leukemia
NCI-H226 lung = tested on: NCI-H226 lung
786-0 renal = tested on: 786-0 renal
SF-295 CNS = tested on: SF-295 CNS
OVCAR-3 ovarian = tested on: OVCAR-3 ovarian
RXF 393 renal = tested on: RXF 393 renal
SF-268 CNS = tested on: SF-268 CNS
HCT-116 colon = tested on: HCT-116 colon
COLO 205 colon = tested on: COLO 205 colon
A549 NSCLC = tested on: A549 NSCLC
SK-MEL-5 melanoma = tested on: SK-MEL-5 melanoma
K-562 leukemia = tested on: K-562 leukemia
OVCAR-4 ovarian = tested on: OVCAR-4 ovarian
NCI-H522 lung = tested on: NCI-H522 lung
NCI-H23 lung = tested on: NCI-H23 lung
HOP-62 NSCLC = tested on: HOP-62 NSCLC
SK-MEL-28 melanoma = tested on: SK-MEL-28 melanoma
SR leukemia = tested on: SR leukemia
NCI-H460 lung = tested on: NCI-H460 lung
UO-31 renal = tested on: UO-31 renal
IGROV1 ovarian = tested on: IGROV1 ovarian
SK-MEL-2 melanoma = tested on: SK-MEL-2 melanoma
ACHN renal = tested on: ACHN renal
SW-620 colon = tested on: SW-620 colon
T-47D breast = tested on: T-47D breast
SN12C renal = tested on: SN12C renal
DU-145 prostate = tested on: DU-145 prostate
A498 renal = tested on: A498 renal

Structure (SMILES): Cc1cccc(N=Nc2ccc(N=Nc3c(O)ccc4ccccc34)cc2C)c1
- TGI (OVCAR-8 ovarian): 60.3 µM
- TGI (UACC-62 melanoma): > 100 µM
- TGI (PC-3 prostate): > 100 µM
- TGI (SNB-19 CNS): > 100 µM
- TGI (KM12 colon): > 100 µM
- TGI (MOLT-4 leukemia): > 100 µM
- TGI (SK-OV-3 ovarian): 92.4 µM
- TGI (OVCAR-5 ovarian): > 100 µM
- TGI (HOP-92 NSCLC): > 100 µM
- TGI (BT-549 breast): > 100 µM
- TGI (U251 CNS): > 100 µM
- TGI (M14 melanoma): > 100 µM
- TGI (UACC-257 melanoma): > 100 µM
- TGI (TK-10 renal): > 100 µM
- TGI (SF-539 CNS): > 100 µM
- TGI (HCT-15 colon): > 100 µM
- TGI (MALME-3M melanoma): 5.34 µM
- TGI (MCF7 breast): > 100 µM
- TGI (HT29 colon): > 100 µM
- TGI (SNB-75 CNS): 37.8 µM
- TGI (CAKI-1 renal): > 100 µM
- TGI (HS 578T breast): > 100 µM
- TGI (EKVX NSCLC): > 100 µM
- TGI (MDA-MB-435): > 100 µM
- TGI (RPMI-8226 leukemia): > 100 µM
- TGI (MDA-MB-231 breast): > 100 µM
- TGI (CCRF-CEM leukemia): > 100 µM
- TGI (NCI/ADR-RES ovarian): 50.7 µM
- TGI (HCC-2998 colon): > 100 µM
- TGI (HL-60(TB) leukemia): > 100 µM
- TGI (NCI-H226 lung): > 100 µM
- TGI (786-0 renal): > 100 µM
- TGI (SF-295 CNS): > 100 µM
- TGI (OVCAR-3 ovarian): > 100 µM
- TGI (RXF 393 renal): > 100 µM
- TGI (SF-268 CNS): > 100 µM
- TGI (HCT-116 colon): > 100 µM
- TGI (COLO 205 colon): > 100 µM
- TGI (A549 NSCLC): > 100 µM
- TGI (SK-MEL-5 melanoma): > 100 µM
- TGI (K-562 leukemia): > 100 µM
- TGI (OVCAR-4 ovarian): > 100 µM
- TGI (NCI-H522 lung): 37.6 µM
- TGI (NCI-H23 lung): > 100 µM
- TGI (HOP-62 NSCLC): 89.6 µM
- TGI (SK-MEL-28 melanoma): > 100 µM
- TGI (SR leukemia): 49.5 µM
- TGI (NCI-H460 lung): > 100 µM
- TGI (UO-31 renal): > 100 µM
- TGI (IGROV1 ovarian): > 100 µM
- TGI (SK-MEL-2 melanoma): > 100 µM
- TGI (ACHN renal): > 100 µM
- TGI (SW-620 colon): > 100 µM

Structure (SMILES): Cc1c2c(cc[n+]1Cc1ccc(F)cc1)c1ccc(OCc3cccc(F)c3)cc1n2Cc1cccc(F)c1
- GI50 (SK-OV-3 ovarian): 1.81 µM
- TGI (SK-OV-3 ovarian): 3.28 µM
- GI50 (CAKI-1 renal): 2.02 µM
- TGI (CAKI-1 renal): 5.55 µM
- GI50 (NCI/ADR-RES ovarian): 8.62 µM
- TGI (NCI/ADR-RES ovarian): > 100 µM

Structure (SMILES): N=C(N)c1ccc(-c2ccc(-c3cc(Cl)cc(Cl)c3)s2)s1
- GI50 (SK-OV-3 ovarian): 3.62 µM
- TGI (SK-OV-3 ovarian): 17.1 µM
- GI50 (BT-549 breast): 4.37 µM
- TGI (BT-549 breast): > 100 µM
- GI50 (CAKI-1 renal): 1.72 µM
- TGI (CAKI-1 renal): 3.35 µM
- GI50 (HS 578T breast): 2.15 µM
- TGI (HS 578T breast): 5 µM
- GI50 (NCI-H226 lung): 30.8 µM
- TGI (NCI-H226 lung): 65.4 µM

Structure (SMILES): CCCCCCCCCCCCCC[n+]1cccc(C(N)=O)c1
- GI50 (OVCAR-8 ovarian): 2.12 µM
- TGI (OVCAR-8 ovarian): 6.22 µM
- GI50 (T-47D breast): 4.66 µM
- TGI (T-47D breast): 27.6 µM
- GI50 (UACC-62 melanoma): 1.15 µM
- TGI (UACC-62 melanoma): 3.48 µM
- GI50 (PC-3 prostate): 0.598 µM
- TGI (PC-3 prostate): 2.94 µM
- GI50 (SN12C renal): 1.86 µM
- TGI (SN12C renal): 8.34 µM
- GI50 (SNB-19 CNS): 1.01 µM
- TGI (SNB-19 CNS): 2.4 µM
- GI50 (MOLT-4 leukemia): 1.67 µM
- TGI (MOLT-4 leukemia): 4.26 µM
- GI50 (SK-OV-3 ovarian): 1.9 µM
- TGI (SK-OV-3 ovarian): 8.13 µM
- GI50 (OVCAR-5 ovarian): 1.62 µM
- TGI (OVCAR-5 ovarian): 6.25 µM
- GI50 (DU-145 prostate): 3.3 µM
- TGI (DU-145 prostate): 11.6 µM
- GI50 (HOP-92 NSCLC): 0.657 µM
- TGI (HOP-92 NSCLC): 3.49 µM
- GI50 (U251 CNS): 0.652 µM
- TGI (U251 CNS): 2.11 µM
- GI50 (M14 melanoma): 1.58 µM
- TGI (M14 melanoma): 3.6 µM
- GI50 (UACC-257 melanoma): 2.34 µM
- TGI (UACC-257 melanoma): 8.46 µM
- GI50 (TK-10 renal): 0.675 µM
- TGI (TK-10 renal): 2.02 µM
- GI50 (HCT-15 colon): 13.5 µM
- TGI (HCT-15 colon): 58.3 µM
- GI50 (MALME-3M melanoma): 1.75 µM
- TGI (MALME-3M melanoma): 4.21 µM
- GI50 (MCF7 breast): 2.62 µM
- TGI (MCF7 breast): 11.4 µM
- GI50 (HT29 colon): 0.778 µM
- TGI (HT29 colon): 4.63 µM
- GI50 (SNB-75 CNS): 1.06 µM
- TGI (SNB-75 CNS): 2.57 µM
- GI50 (CAKI-1 renal): 0.964 µM
- TGI (CAKI-1 renal): 6.52 µM
- GI50 (HS 578T breast): 2.64 µM
- TGI (HS 578T breast): 10.3 µM
- GI50 (EKVX NSCLC): 1.97 µM
- TGI (EKVX NSCLC): 6.08 µM
- GI50 (MDA-MB-435): 1.5 µM
- TGI (MDA-MB-435): 3.24 µM
- GI50 (RPMI-8226 leukemia): 1.87 µM
- TGI (RPMI-8226 leukemia): 4.44 µM
- GI50 (MDA-MB-231 breast): 1.45 µM
- TGI (MDA-MB-231 breast): 4.54 µM
- GI50 (CCRF-CEM leukemia): 1.5 µM
- TGI (CCRF-CEM leukemia): 4.47 µM
- GI50 (NCI/ADR-RES ovarian): 25.6 µM
- TGI (NCI/ADR-RES ovarian): > 80.3 µM
- GI50 (HCC-2998 colon): 2.2 µM
- GI50 (NCI-H226 lung): 1.63 µM
- TGI (NCI-H226 lung): 5.11 µM
- GI50 (786-0 renal): 1.32 µM
- TGI (786-0 renal): 2.82 µM
- GI50 (SF-295 CNS): 1.69 µM
- TGI (SF-295 CNS): 4.23 µM
- GI50 (OVCAR-3 ovarian): 1.93 µM
- TGI (OVCAR-3 ovarian): 5.02 µM
- GI50 (SF-268 CNS): 1.66 µM
- TGI (SF-268 CNS): 4.48 µM
- GI50 (HCT-116 colon): 1.61 µM
- TGI (HCT-116 colon): 3.97 µM
- GI50 (COLO 205 colon): 1.29 µM
- TGI (COLO 205 colon): 2.72 µM
- GI50 (A549 NSCLC): 4.08 µM
- TGI (A549 NSCLC): 18.4 µM
- GI50 (K-562 leukemia): 1.88 µM
- TGI (K-562 leukemia): 6.53 µM
- GI50 (OVCAR-4 ovarian): 3.73 µM
- TGI (OVCAR-4 ovarian): 19.6 µM
- GI50 (NCI-H522 lung): 1.31 µM
- TGI (NCI-H522 lung): 6.24 µM
- GI50 (NCI-H23 lung): 2.28 µM
- TGI (NCI-H23 lung): 13.6 µM
- GI50 (HOP-62 NSCLC): 1.35 µM
- TGI (HOP-62 NSCLC): 3.41 µM
- GI50 (SK-MEL-28 melanoma): 2.01 µM
- TGI (SK-MEL-28 melanoma): 5.52 µM
- GI50 (SR leukemia): 1.45 µM
- TGI (SR leukemia): 3.94 µM
- GI50 (A498 renal): 5.57 µM
- TGI (A498 renal): 29.2 µM
- GI50 (NCI-H460 lung): 3.09 µM
- TGI (NCI-H460 lung): 10.9 µM
- GI50 (UO-31 renal): 9.42 µM
- TGI (UO-31 renal): 26.3 µM
- GI50 (IGROV1 ovarian): 0.197 µM
- TGI (IGROV1 ovarian): 0.681 µM
- GI50 (SK-MEL-2 melanoma): 2.13 µM
- TGI (SK-MEL-2 melanoma): 4.69 µM
- GI50 (ACHN renal): 3.46 µM
- TGI (ACHN renal): 17.9 µM
- GI50 (SW-620 colon): 1.98 µM
- TGI (SW-620 colon): 6.72 µM
